In patent US20230263768A1, “WATER-SOLUBLE ARTESUNATE-BASED THERAPY FOR CORONAVIRUS INFECTION” (priority 2020, published 2023):

What was measured:
[1] = Solubility of artesunate formulations in simulated gastric fluid; type: physicochemical; settings: 0.5 g in 10 mL SGF pH 1.2, 36.5° C., 100 rev/min, after 30 minutes
Method: An amount of 0.5 g of different artesunate formulations (untreated artesunate, sodium Artesunate, Artesunate/SG complex and WSA powders) are dispersed in 10 mL of simulated gastric fluid (SGF, pH 1.2). All solutions are incubated at 36.5° C. under mild shaking with (100 rev/min) in a G24 Environmental Incubator Shaker (New Brunswick Scientific Co., NJ, USA).

[2] = test system: SARS-CoV-2 (isolate USA-WA1-2020); assay: SARS-CoV-2 replication in VERO E6 cells, viral RNA by qPCR (Ct) after 48 h; type: cell-based
[3] = Example 4, 160 µg/mL, 48 h, VERO E6

SMILES	appearance of the solution / precipitation in SGF [1]	Cycle Threshold Value (quantity of viral RNA) [2, 3]	antiviral activity (in words) [2, 3]	Cycle Threshold Value (quantity of viral RNA) ([2]; Example 4, 160 µg/mL, 48 h, VERO E6, listed as sodium artesunate)	antiviral activity (in words) ([2]; Example 6, dose response and combination with Telmisartan)
C[C@H]1[C@H](OC(=O)CCC(=O)[O-])O[C@@H]2O[C@@]3(C)CC[C@H]4[C@H](C)CC[C@@H]1[C@@]24OO3.[Na+] [Sodium Artesunate]	cloudy, but no evident precipitation is observed	22.5	Low antiviral activity	about 23	–
C[C@@H]1CCC2[C@@H](C)[C@H](OC(=O)CCC(=O)O)OC3O[C@]4(C)CCC1[C@]32OO4 (stereo partly drawn) [untreated Artesunate, Artesunate]	milky appearance, with an important precipitation at the bottom of vial	–	–	–	–
CCCc1nc2c(C)cc(-c3nc4ccccc4n3C)cc2n1Cc1ccc(-c2ccccc2C(=O)O)cc1 [Telmisartan]	–	–	–	–	No activity antiviral is observed
